Source: patent publication US20180037568A1, “MODULATORS OF METHYL MODIFYING ENZYMES, COMPOSITIONS AND USES THEREOF” (Constellation Pharmaceuticals, Inc., priority 2015, published 2018)
Read-outs that look alike come from different tables or passages of the source.

Tests used:
[1] = molecular target: EZH2 (Homo sapiens, UniProt Q15910); assay: EZH2 nuc BSA Brij 1.5 (IC50): rPRC2, biotinylated oligonucleosome substrate, 3H SAM FlashPlate; type: biochemical
Method: EZH2 Nuc BSA Brij 1.5 (IC50):
Assays were carried out by mixing rPRC2 together with biotinylated oligonucleosome substrates in the presence of the radio-labeled enzyme co-factor, S-adenosyl-L-methionine (^3H SAM) (Perkin Elmer) and monitoring the enzymatically mediated transfer of tritiated methyl groups from ^3H SAM to histone lysine residues. The amount of resulting tritiated methyl histone product was measured by first capturing the biotinylated oligonucleosomes in streptavidin (SAV) coated FlashPlates (Perkin Elmer), followed by a wash step to remove un-reacted ^3H SAM, and then counting on a TopCount NXT 384 well plate scintillation counter (Perkin Elmer). The final assay conditions for EZH2 were as follows: 50 mM Tris Buffer pH 8.5, 1 mM DTT, 69 μM Brij-35 detergent, 5.0 mM MgCl2, 0.1 mg/mL BSA, 0.2 μM ^3H SAM, 0.2 μM biotinylated oligonucleosomes, 3.6 μM H3K27me3 peptide and 2 nM EZH2.
Compound IC50 Measurements were Obtained as Follows:
Compounds were first dissolved in 100% DMSO as 10 mM stock solutions. Ten point dose response curves were generated by dispensing varying amounts of the 10 mM compound solution in 10 wells of the 384 well plate (Echo; Labcyte), pure DMSO was then used to backfill the wells to insure all wells have the same amount of DMSO. A 12.5 μL volume of the HMT enzyme, H3K27me3 peptide and oligonucleosome substrate in assay buffer was added to each well of the assay plate using a Multidrop Combi (ThermoFisher). Compounds were pre-incubated with the enzyme for 20 min, followed by initiation of the methyltransferase reaction by addition of 12.5 μL of ^3H SAM in assay buffer (final volume=25 μL). The final concentrations of compounds ranged from a top default concentration of 80 μM down to 0.16 μM in ten 2-fold dilution steps. Reactions were carried out for 60 minutes and quenched with 20 μL per well of 1.96 mM SAH, 50 mM Tris pH 8.5, 200 mM EDTA. Stopped reactions were transferred to SAV coated Flashplates (Perkin Elmer), incubated for 120 min, washed with a plate washer, and then read on the TopCount NXT (1.0 min/well) to measure the amount of methyl histone product formed during the reaction. The amount of methyl histone product was compared with the amount of product formed in the 0% and 100% inhibition control wells allowing the calculation of % Inhibition in the presence of the individual compounds at various concentrations. IC50's were computed using a 4 parameter fit non-linear curve fitting software package (XLFIT, part of the database package, ActivityBase (IDBS)) where the four parameters were IC50, Hill slope, pre-transitional baseline (0% INH), and post-transitional baseline (100% INH); with the latter two parameters being fixed to zero and 100%, respectively, by default.

[2] = molecular target: T1, PRC2 containing wt EZH2 (Homo sapiens, UniProt Q15910); assay: EZH2 pep BSA Brij 4.0 LowE (IC50): 3H-SAM incorporation into biotinylated H3 peptide; type: biochemical
T1 construct: made in house
T1 sequence (Q15910 whole entry): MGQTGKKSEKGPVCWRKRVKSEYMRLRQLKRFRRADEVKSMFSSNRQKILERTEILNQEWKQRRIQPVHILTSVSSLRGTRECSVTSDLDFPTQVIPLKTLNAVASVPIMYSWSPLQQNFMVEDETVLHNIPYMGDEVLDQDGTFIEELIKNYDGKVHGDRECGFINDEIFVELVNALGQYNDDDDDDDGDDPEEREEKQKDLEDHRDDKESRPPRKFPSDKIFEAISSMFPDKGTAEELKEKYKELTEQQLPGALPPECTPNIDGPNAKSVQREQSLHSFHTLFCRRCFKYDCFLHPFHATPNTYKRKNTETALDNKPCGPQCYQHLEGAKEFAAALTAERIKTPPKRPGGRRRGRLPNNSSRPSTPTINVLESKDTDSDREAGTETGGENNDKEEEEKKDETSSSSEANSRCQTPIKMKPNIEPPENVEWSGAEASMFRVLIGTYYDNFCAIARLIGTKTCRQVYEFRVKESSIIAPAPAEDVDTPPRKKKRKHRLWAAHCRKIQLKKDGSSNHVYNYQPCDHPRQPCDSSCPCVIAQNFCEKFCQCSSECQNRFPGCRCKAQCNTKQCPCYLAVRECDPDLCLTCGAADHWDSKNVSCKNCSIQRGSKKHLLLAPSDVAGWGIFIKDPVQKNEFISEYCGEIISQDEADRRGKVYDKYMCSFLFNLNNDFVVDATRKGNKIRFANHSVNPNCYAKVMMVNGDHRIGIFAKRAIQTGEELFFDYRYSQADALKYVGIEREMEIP
T1 sequence (O75530 whole entry partner): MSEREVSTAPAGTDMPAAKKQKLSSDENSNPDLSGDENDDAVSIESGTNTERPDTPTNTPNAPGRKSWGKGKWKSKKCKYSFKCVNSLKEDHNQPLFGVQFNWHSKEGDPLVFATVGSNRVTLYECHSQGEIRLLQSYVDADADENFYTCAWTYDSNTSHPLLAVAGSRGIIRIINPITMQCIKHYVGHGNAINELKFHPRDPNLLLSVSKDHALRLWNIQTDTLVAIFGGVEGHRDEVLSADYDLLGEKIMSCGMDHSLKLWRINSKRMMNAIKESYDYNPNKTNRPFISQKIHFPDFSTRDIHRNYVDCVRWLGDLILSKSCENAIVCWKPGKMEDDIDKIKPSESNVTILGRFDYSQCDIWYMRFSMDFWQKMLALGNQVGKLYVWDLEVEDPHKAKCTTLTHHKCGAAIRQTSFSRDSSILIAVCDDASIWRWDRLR
T1 sequence (Q15022 whole entry partner): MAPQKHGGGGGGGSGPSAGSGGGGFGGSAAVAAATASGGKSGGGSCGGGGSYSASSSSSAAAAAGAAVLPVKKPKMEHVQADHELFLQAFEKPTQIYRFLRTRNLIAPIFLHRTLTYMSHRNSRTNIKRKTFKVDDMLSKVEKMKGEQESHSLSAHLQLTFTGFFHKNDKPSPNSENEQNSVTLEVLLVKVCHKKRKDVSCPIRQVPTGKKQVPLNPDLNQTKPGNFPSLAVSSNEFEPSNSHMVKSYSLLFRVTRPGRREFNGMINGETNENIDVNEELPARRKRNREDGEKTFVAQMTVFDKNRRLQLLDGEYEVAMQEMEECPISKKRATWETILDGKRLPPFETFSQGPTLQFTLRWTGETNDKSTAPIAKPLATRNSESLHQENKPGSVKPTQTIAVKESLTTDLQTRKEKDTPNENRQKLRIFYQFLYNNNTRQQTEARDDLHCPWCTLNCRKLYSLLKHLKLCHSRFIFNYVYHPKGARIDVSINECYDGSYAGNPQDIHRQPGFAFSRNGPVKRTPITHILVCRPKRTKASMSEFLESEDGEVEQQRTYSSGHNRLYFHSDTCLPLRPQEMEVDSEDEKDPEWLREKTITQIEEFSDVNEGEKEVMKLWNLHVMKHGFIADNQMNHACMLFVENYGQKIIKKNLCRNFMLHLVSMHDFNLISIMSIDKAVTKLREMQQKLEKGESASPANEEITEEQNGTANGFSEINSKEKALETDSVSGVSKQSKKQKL
T1 sequence (Q09028 whole entry partner): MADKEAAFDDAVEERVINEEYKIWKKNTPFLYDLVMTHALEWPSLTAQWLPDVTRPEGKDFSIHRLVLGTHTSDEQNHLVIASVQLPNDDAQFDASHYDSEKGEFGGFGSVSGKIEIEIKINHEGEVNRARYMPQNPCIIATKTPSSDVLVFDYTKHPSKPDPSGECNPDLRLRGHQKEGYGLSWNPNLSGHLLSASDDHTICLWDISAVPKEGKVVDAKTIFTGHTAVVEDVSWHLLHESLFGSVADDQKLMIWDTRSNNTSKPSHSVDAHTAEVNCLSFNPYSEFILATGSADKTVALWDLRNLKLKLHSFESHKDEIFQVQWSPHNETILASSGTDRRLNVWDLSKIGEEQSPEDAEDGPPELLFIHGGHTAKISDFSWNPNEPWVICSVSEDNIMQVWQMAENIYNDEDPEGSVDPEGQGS
T1 sequence (Q6ZN18 whole entry partner): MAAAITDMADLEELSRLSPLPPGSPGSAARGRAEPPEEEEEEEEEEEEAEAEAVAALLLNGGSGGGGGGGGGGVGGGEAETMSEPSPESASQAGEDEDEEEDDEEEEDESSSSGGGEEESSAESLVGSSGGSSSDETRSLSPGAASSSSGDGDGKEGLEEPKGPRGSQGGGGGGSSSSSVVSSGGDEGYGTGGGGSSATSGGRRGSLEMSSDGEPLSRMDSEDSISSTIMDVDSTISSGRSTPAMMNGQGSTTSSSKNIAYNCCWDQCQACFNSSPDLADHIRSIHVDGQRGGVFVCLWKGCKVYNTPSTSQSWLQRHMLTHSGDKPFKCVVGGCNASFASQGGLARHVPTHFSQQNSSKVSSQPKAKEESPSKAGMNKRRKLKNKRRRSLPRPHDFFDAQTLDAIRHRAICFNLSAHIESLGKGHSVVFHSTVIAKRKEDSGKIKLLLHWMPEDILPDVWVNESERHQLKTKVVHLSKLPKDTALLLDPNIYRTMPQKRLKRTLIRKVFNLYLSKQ
Method in brief: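 PRC2 (wt EZH2, 20 pM) pre-incubated 120 min with compound, 0.9 μM 3H-SAM and 2 μM H3K27me3 activating peptide in pH 8.5 Tris/DTT/Brij-35/0.1% BSA, 0.8% DMSO. Biotinylated H3K27me1 peptide added (2 μM stock), 5 h at room temperature, EDTA/SAH quench, streptavidin Flashplate capture. IC50 from four-parameter fit versus full-activity and no-enzyme controls.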

[3] = tested on: H3K27me3 mark; assay: H3K27me3 Alpha Hela Assay (AlphaLISA); type: cell-based; conditions: Hela cells, read-out: EZH2 Cell H3K27me3 Alpha HeLa (EC50 K27me3)
Method in brief: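 HeLa cells at 1,000/well were treated with ten 3-fold compound doses for 72 h at 37 °C. After lysis and histone extraction, H3K27me3 was detected by AlphaLISA with anti-K27me3 acceptor beads, biotinylated anti-H3 (C-ter) antibody (3 nM final) and streptavidin donor beads (20 μg/mL final). Signals were normalized to DMSO and curve-fitted for EC50.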

[4] = EZH2 nuc BSA Brij 1.5 (IC50), 2 nM EZH2, 0.2 μM biotinylated oligonucleosomes, 0.2 μM 3H SAM, 3.6 μM H3K27me3 peptide
[5] = EZH2 pep BSA Brij 4.0 LowE (IC50), 20 pM PRC2 wt EZH2, 0.9 μM 3H-SAM, biotinylated H3 peptide substrate, 2 μM H3K27me3 activating peptide
[6] = read-out: EZH2 nuc BSA Brij 1.5 (IC50); 2 nM EZH2, 0.2 μM biotinylated oligonucleosomes, 0.2 μM 3H SAM, 3.6 μM H3K27me3 peptide
[7] = read-out: EZH2 pep BSA Brij 4.0 LowE (IC50); 20 pM PRC2 wt EZH2, 0.9 μM 3H-SAM, biotinylated H3 peptide substrate, 2 μM H3K27me3 activating peptide
[8] = 2 nM EZH2, 0.2 μM biotinylated oligonucleosomes, 0.2 μM 3H SAM, 3.6 μM H3K27me3 peptide; read-out: EZH2 nuc BSA Brij 1.5 (IC50)

EZH2, sequence (Q15910 whole entry): as the sequence (Q15910 whole entry) above
EZH2, sequence (O75530 whole entry partner): as the sequence (O75530 whole entry partner) above
EZH2, sequence (Q15022 whole entry partner): as the sequence (Q15022 whole entry partner) above

| SMILES | IC50 [1, 4] | EC50 ([3]; 72 hrs) | IC50 [1, 6] | EC50 ([3]; Homo sapiens, HeLa, 72 h) | further results |
| --- | --- | --- | --- | --- | --- |
| COc1cc(C)[nH]c(=O)c1CNC(=O)c1c(C)n(C(C)C2CCNC(C(F)(F)F)C2)c2ccccc12 (single isomer, unassigned) [Compound 14, N-((4-methoxy-6-methyl-2-oxo-1,2-dihydropyridin-3-yl)methyl)-2-methyl-1-(1-(2-(trifluoromethyl)piperidin-4-yl)ethyl)-1H-indole-3-carboxamide] | < 100 nM | < 400 nM | – | – | IC50 [2, 5]: < 100 nM |
| COc1cc(C)[nH]c(=O)c1CNC(=O)c1c(C)n(C(C)C2CCN(C)C(C(F)(F)F)C2)c2ccccc12 (single isomer, unassigned) [Compound 15, N-((4-methoxy-6-methyl-2-oxo-1,2-dihydropyridin-3-yl)methyl)-2-methyl-1-(1-(1-methyl-2-(trifluoromethyl)piperidin-4-yl)ethyl)-1H-indole-3-carboxamide] | – | < 400 nM | < 100 nM | – | IC50 [2, 5]: < 100 nM |
| COc1cc(C)[nH]c(=O)c1CNC(=O)c1c(C)n(C(C)C2CCNC(C(F)(F)F)C2)c2ccccc12 (single isomer, unassigned) [Compound 18, N-((4-methoxy-6-methyl-2-oxo-1,2-dihydropyridin-3-yl)methyl)-2-methyl-1-(1-(2-(trifluoromethyl)piperidin-4-yl)ethyl)-1H-indole-3-carboxamide] | < 100 nM | < 400 nM | – | – | IC50 [2, 7]: < 100 nM |
| COc1cc(C)[nH]c(=O)c1CNC(=O)c1c(C)n(C(C)C2CCN(C)C(C(F)(F)F)C2)c2ccccc12 (single isomer, unassigned) [Compound 24, N-((4-methoxy-6-methyl-2-oxo-1,2-dihydropyridin-3-yl)methyl)-2-methyl-1-(1-(1-methyl-2-(trifluoromethyl)piperidin-4-yl)ethyl)-1H-indole-3-carboxamide] | – | < 400 nM | < 100 nM | – | IC50 [2, 7]: < 100 nM |
| COc1cc(C)[nH]c(=O)c1CNC(=O)c1c(C)n(C(C)C2CCNC(c3ccc(F)cc3)C2)c2ccccc12 (single isomer, unassigned) [Compound 31, 1-(1-(2-(4-fluorophenyl)piperidin-4-yl)ethyl)-N-((4-methoxy-6-methyl-2-oxo-1,2-dihydropyridin-3-yl)methyl)-2-methyl-1H-indole-3-carboxamide] | – | 400 to 2000 nM | – | – | IC50 [1, 8]: < 100 nM; IC50 ([2]; 20 pM PRC2 wt EZH2, 0.9 μM 3H-SAM, biotinylated H3 peptide substrate, 2 μM H3K27me3 activating peptide; read-out: EZH2 pep BSA Brij 4.0 LowE (IC50)): < 100 nM |
| COc1cc(C)[nH]c(=O)c1CNC(=O)c1c(C)n(C(C)C2CCNC(c3ccc(F)cc3)C2)c2ccccc12 (single isomer, unassigned) [Compound 32, 1-(1-(2-(4-fluorophenyl)piperidin-4-yl)ethyl)-N-((4-methoxy-6-methyl-2-oxo-1,2-dihydropyridin-3-yl)methyl)-2-methyl-1H-indole-3-carboxamide] | – | > 2000 nM | – | – | IC50 [1, 8]: < 100 nM |
| COc1cc(C)[nH]c(=O)c1CNC(=O)c1c(C)n(C(C)C2CCNC(C(F)F)C2)c2ccccc12 (single isomer, unassigned) [Compound 36, 1-(1-(2-(difluoromethyl)piperidin-4-yl)ethyl)-N-((4-methoxy-6-methyl-2-oxo-1,2-dihydropyridin-3-yl)methyl)-2-methyl-1H-indole-3-carboxamide] | < 100 nM | > 2000 nM | – | – | – |
| COc1cc(C)[nH]c(=O)c1CNC(=O)c1c(C)n(C(C)C2CCNC(C(F)F)C2)c2ccccc12 (single isomer, unassigned) [Compound 37, 1-(1-(2-(difluoromethyl)piperidin-4-yl)ethyl)-N-((4-methoxy-6-methyl-2-oxo-1,2-dihydropyridin-3-yl)methyl)-2-methyl-1H-indole-3-carboxamide] | – | 400 to 2000 nM | < 100 nM | – | – |
| COc1cc(C)[nH]c(=O)c1CNC(=O)c1c(C)n(C(C)C2CCN(CC3CC3)C(C(F)(F)F)C2)c2ccccc12 (single isomer, unassigned) [Compound 38, 1-(1-(1-(cyclopropylmethyl)-2-(trifluoromethyl)piperidin-4-yl)ethyl)-N-((4-methoxy-6-methyl-2-oxo-1,2-dihydropyridin-3-yl)methyl)-2-methyl-1H-indole-3-carboxamide] | < 100 nM | – | – | > 2000 nM | – |
| COc1cc(C)[nH]c(=O)c1CNC(=O)c1c(C)n(C(C)C2CCN(CC3CC3)C(C(F)(F)F)C2)c2ccccc12 (single isomer, unassigned) [Compound 39, 1-(1-(1-(cyclopropylmethyl)-2-(trifluoromethyl)piperidin-4-yl)ethyl)-N-((4-methoxy-6-methyl-2-oxo-1,2-dihydropyridin-3-yl)methyl)-2-methyl-1H-indole-3-carboxamide] | – | > 2000 nM | < 100 nM | – | – |
| COc1cc(C)[nH]c(=O)c1CNC(=O)c1c(C)n(C(C)C2CCN(CC(F)F)C(C)C2)c2ccccc12 (single isomer, unassigned) [Compound 41, 1-(1-(1-(2,2-difluoroethyl)-2-methylpiperidin-4-yl)ethyl)-N-((4-methoxy-6-methyl-2-oxo-1,2-dihydropyridin-3-yl)methyl)-2-methyl-1H-indole-3-carboxamide] | – | < 400 nM | < 100 nM | – | – |
| COc1cc(C)[nH]c(=O)c1CNC(=O)c1c(C)n(C(C)C2CCN(CC(F)(F)F)C(C)C2)c2ccccc12 (single isomer, unassigned) [Compound 42, N-((4-methoxy-6-methyl-2-oxo-1,2-dihydropyridin-3-yl)methyl)-2-methyl-1-(1-(2-methyl-1-(2,2,2-trifluoroethyl)piperidin-4-yl)ethyl)-1H-indole-3-carboxamide] | < 100 nM | – | – | 400 to 2000 nM | – |
| COc1cc(C)[nH]c(=O)c1CNC(=O)c1c(C)n(C(C)C2CCNC3CCCCC32)c2ccccc12 (centres unmarked) [Compound 4, 1-(1-(decahydroquinolin-4-yl)ethyl)-N-((4-methoxy-6-methyl-2-oxo-1,2-dihydropyridin-3-yl)methyl)-2-methyl-1H-indole-3-carboxamide] | < 100 nM | – | – | > 2000 nM | – |
| COc1cc(C)[nH]c(=O)c1CNC(=O)c1c(C)n(C(C)C2CCN(C)C(=O)C2)c2ccccc12 (centres unmarked) [Compound 11, N-((4-methoxy-6-methyl-2-oxo-1,2-dihydropyridin-3-yl)methyl)-2-methyl-1-(1-(1-methyl-2-oxopiperidin-4-yl)ethyl)-1H-indole-3-carboxamide] | < 100 nM | – | – | > 2000 nM | – |
| COc1cc(C)[nH]c(=O)c1CNC(=O)c1c(C)n(C(C)C2CCNCC2C(F)(F)F)c2ccccc12 (centres unmarked) [Compound 19, N-((4-methoxy-6-methyl-2-oxo-1,2-dihydropyridin-3-yl)methyl)-2-methyl-1-(1-(3-(trifluoromethyl)piperidin-4-yl)ethyl)-1H-indole-3-carboxamide] | < 100 nM | – | – | > 2000 nM | – |
